Reference: US9469650B2, “Melampomagnolide B derivatives” (BOARD OF TRUSTEES OF THE UNIVERSITY OF ARKANSAS, priority 2013, dated 2016)
Like-named read-outs stand apart in the source and are kept apart here.

Legend:
MOLT-4 = test: panel of 60 human tumor cell lines, growth inhibition (Leukemia); settings: Homo sapiens
SK-MEL-2 = test: panel of 60 human tumor cell lines, growth inhibition (Melanoma); settings: Homo sapiens
SK-MEL-28 = test: as above; settings: Homo sapiens
UACC-62 = test: as above; settings: Homo sapiens
SF-539 = test: panel of 60 human tumor cell lines, growth inhibition (CNS Cancer); settings: Homo sapiens
SNB-19 = test: as above; settings: Homo sapiens
COLO 205 = test: panel of 60 human tumor cell lines, growth inhibition (Colon Cancer); settings: Homo sapiens
KM12 = test: as above
A498 = test: panel of 60 human tumor cell lines, growth inhibition (Renal Cancer); settings: Homo sapiens
CAKI-1 = test: as above; settings: Homo sapiens
RXF 393 = test: as above; settings: Homo sapiens; for GI50: RXF 393, RXF 393
MDA-MB-468 = test: panel of 60 human tumor cell lines, growth inhibition (Breast Cancer); settings: Homo sapiens
IGROV1 = test: panel of 60 human tumor cell lines, growth inhibition (Ovarian Cancer); settings: Homo sapiens
NCI/ADR-RES = test: as above; settings: Homo sapiens
PC-3 = test: panel of 60 human tumor cell lines, growth inhibition (Prostate Cancer); settings: Homo sapiens
DU-145 = test: as above; settings: Homo sapiens
HOP-92 = test: panel of 60 human tumor cell lines, growth inhibition (Non-Small Cell Lung Cancer); settings: Homo sapiens; for GI50: HOP-92, HOP-92
NCI-H23 = test: as above; settings: Homo sapiens

C=C1C(=O)O[C@H]2[C@H]1CC/C(COC(=O)NCCN1CCOCC1)=C\CC[C@@]1(C)O[C@@H]21 [JVM 57, ((1aR,7aS,10aS,10bS,E)-1a-methyl-8-methylene-9-oxo-1a,2,3,6,7,7a,8,9,10a,10b-decahydrooxireno[2′,3′:9,10]-cyclodeca[1,2-b]furan-5-yl)-methyl(2-morpholinoethyl)carbamate]
Percent Growth (HL-60(TB); Log10 Concentration −4.0): −55%
Percent Growth (HL-60(TB); Log10 Concentration −5.0): 14%
Percent Growth (HL-60(TB); Log10 Concentration −6.0): 95%
Percent Growth (HL-60(TB); Log10 Concentration −7.0): 101%
Percent Growth (HL-60(TB); Log10 Concentration −8.0): 100%
GI50 (MOLT-4; MOLT-4): 5 µM
CC50 (MOLT-4; MOLT-4, read-out: LC50): > 100 µM
IC (TGI) (MOLT-4; MOLT-4, read-out: TGI): 22.9 µM
GI50 (SK-MEL-2; SK-MEL-2): 13.2 µM
CC50 (SK-MEL-2; SK-MEL-2, read-out: LC50): 65.5 µM
IC (TGI) (SK-MEL-2; SK-MEL-2, read-out: TGI): 29.4 µM
GI50 (SK-MEL-28; SK-MEL-28): 10.5 µM
CC50 (SK-MEL-28; SK-MEL-28, read-out: LC50): 47.2 µM
IC (TGI) (SK-MEL-28; SK-MEL-28, read-out: TGI): 22.2 µM
GI50 (UACC-62; UACC-62): 11.8 µM
CC50 (UACC-62; UACC-62, read-out: LC50): 53.2 µM
IC (TGI) (UACC-62; UACC-62, read-out: TGI): 25.1 µM
GI50 (SF-539; SF-539): 14.4 µM
CC50 (SF-539; SF-539, read-out: LC50): 55.2 µM
IC (TGI) (SF-539; SF-539, read-out: TGI): 28.2 µM
GI50 (SNB-19; SNB-19): 45.3 µM
CC50 (SNB-19; SNB-19, read-out: LC50): > 100 µM
IC (TGI) (SNB-19; SNB-19, read-out: TGI): > 100 µM
GI50 (COLO 205; COLO 205): 8.89 µM
CC50 (COLO 205; COLO 205, read-out: LC50): 71.6 µM
IC (TGI) (COLO 205; COLO 205, read-out: TGI): 25.9 µM
GI50 (KM12; Homo sapiens, KM12): 26.3 µM
CC50 (KM12; Homo sapiens, KM12, read-out: LC50): > 100 µM
TGI (KM12; KM12): 7.66E−5
Percent Growth (KM12; KM12, Log10 Concentration −4.0): −12%
Percent Growth (KM12; KM12, Log10 Concentration −5.0): 95%
Percent Growth (KM12; KM12, Log10 Concentration −6.0): 100%
Percent Growth (KM12; KM12, Log10 Concentration −7.0): 106%
Percent Growth (KM12; KM12, Log10 Concentration −8.0): 102%
GI50 (A498; A498): 19.4 µM
CC50 (A498; A498, read-out: LC50): > 100 µM
IC (TGI) (A498; A498, read-out: TGI): 57 µM
GI50 (CAKI-1; CAKI-1): 4.31 µM
CC50 (CAKI-1; CAKI-1, read-out: LC50): 52.7 µM
IC (TGI) (CAKI-1; CAKI-1, read-out: TGI): 17.7 µM
GI50 (RXF 393): 3000 nM
GI50 (RXF 393; 5-dose assay): 3000 nM
CC50 (RXF 393; RXF 393, read-out: LC50): 41 µM
IC (TGI) (RXF 393; RXF 393, read-out: TGI): 11.9 µM
GI50 (MDA-MB-468; MDA-MB-468): 3.26 µM
CC50 (MDA-MB-468; MDA-MB-468, read-out: LC50): 59.1 µM
IC (TGI) (MDA-MB-468; MDA-MB-468, read-out: TGI): 14.6 µM
GI50 (IGROV1; IGROV-1): 3.49 µM
CC50 (IGROV1; IGROV-1, read-out: LC50): 58.6 µM
IC (TGI) (IGROV1; IGROV-1, read-out: TGI): 14.6 µM
GI50 (NCI/ADR-RES): 52.3 µM
CC50 (NCI/ADR-RES; read-out: LC50): > 100 µM
IC (TGI) (NCI/ADR-RES; read-out: TGI): > 100 µM
GI50 (PC-3; PC-3): 16.6 µM
CC50 (PC-3; PC-3, read-out: LC50): 85.8 µM
IC (TGI) (PC-3; PC-3, read-out: TGI): 37.8 µM
GI50 (DU-145; DU-145): 3.74 µM
CC50 (DU-145; DU-145, read-out: LC50): 37 µM
IC (TGI) (DU-145; DU-145, read-out: TGI): 13.3 µM
GI50 (HOP-92): 2300 nM
GI50 (HOP-92; 5-dose assay): 2300 nM
CC50 (HOP-92; HOP-92, read-out: LC50): 33.7 µM
IC (TGI) (HOP-92; HOP-92, read-out: TGI): 8.61 µM
GI50 (NCI-H23; NCI-H23): 15.8 µM
CC50 (NCI-H23; NCI-H23, read-out: LC50): 84.3 µM
IC (TGI) (NCI-H23; NCI-H23, read-out: TGI): 36.5 µM
